# Results from patent publication US6686393B1, “Pharmaceutical compositions having antiviral activity against human cytomegalovirus” (Murdock International Corporation, priority 1990, dated 2004).
# “Also recorded” adds a separate entry of the source. Where two headings read alike, the source gives them in different places.
# Tests used:
# [1] = test system: MRC-5 cells
# [2] = test system: human cytomegalovirus (HCMV), strain AD-169; experiment: Antiviral test (plaque reduction) versus HCMV, strain AD-169, in MRC-5 cells; format: cell-based; conditions: for Activity in initial screening against HCMV in vitro: in words; for Number of Plaques: average of two wells; for inhibition at 0.1 µg/mL: Human betaherpesvirus 5, AD169, MRC5, 0.1 μg/ml; for inhibition at 0.32 µg/mL: Human betaherpesvirus 5, AD169, MRC5, 0.32 μg/ml; for inhibition at 1 µg/mL: Human betaherpesvirus 5, AD169, MRC5, 1.0 μg/ml
# [3] = test system: HCMV, strain C8805-37 (DHPG-resistant); experiment: microbe, parasite or virus in culture; format: cell-based, human cytomegalovirus
# [4] = test system: human cytomegalovirus (HCMV) strain AD-169; experiment: Antiviral effect of different exposure times, HCMV strain AD-169 (plaque reduction); format: cell-based
# [5] = test system: HCMV, strain AD-169; experiment: Virucidal test versus HCMV, strain AD-169; format: cell-based, human cytomegalovirus; conditions: in words
# [6] = test system: murine cytomegalovirus, strain Smith MSGV; experiment: Antiviral test (plaque reduction) versus murine cytomegalovirus, strain Smith MSGV, in 3T3 cells; format: cell-based; conditions: Example 8
# [7] = test system: 3T3 cells; conditions: mouse
# [8] = Example 3, cells exposed 4 days
# [9] = 0.32 μg/ml (second line so printed, r16, below 0.1)
# [10] = Example 1, DMSO stock, read-out: % Inhibition
# [11] = Example 2, read-out: Percent Inhibition of Plaque Numbers (Compared to Virus Controls)
# [12] = Human betaherpesvirus 5, MRC5, read-out: Percent Inhibition Compared to Controls
compound,measurement,setting,value
"Cc1cc(O)c2c(c1)C(C1c3cc(C)cc(O)c3C(=O)c3c(O)cc(O)cc31)c1cc(O)cc(O)c1C2=O (stereo not shown) [Emodin Bianthrone (mixed), emodin bianthrone]",CD50,"[1]; Example 2, cells exposed 6 or more days",1.1 µg/mL
same,CD50,[1]; [8],1.8 µg/mL
same,CD50,"[1]; Table 9 summary, two values = two experiments",1.1 µg/mL
same,CD50,"[1]; Table 10 summary, DHPG resistant HCMV test",1.8 µg/mL
same,Percent Inhibition of Plaque Numbers (Compared to Virus Controls),"[2]; 0.01 μg/ml, Example 2",0%
same,Percent Inhibition of Plaque Numbers (Compared to Virus Controls),"[2]; 0.032 μg/ml, Example 2",0%
same,Percent Inhibition of Plaque Numbers (Compared to Virus Controls),"[2]; 0.1 μg/ml, Example 2",0%
same,Percent Inhibition of Plaque Numbers (Compared to Virus Controls),"[2]; 0.32 μg/ml, Example 2",0%
same,Percent Inhibition of Plaque Numbers (Compared to Virus Controls),"[2]; 1.0 μg/ml, Example 2",100%
same,Percent Inhibition of Plaque Numbers (Compared to Virus Controls),"[2]; 3.2 μg/ml, Example 2",toxic
same,Percent Inhibition of Plaque Numbers (Compared to Virus Controls),"[2]; 10 μg/ml, Example 2, ethanol stock (protohypericin in DMSO), cells exposed 6 or more days",toxic
same,Activity in initial screening against HCMV in vitro,[2],active
same,Activity against HCMV,[2]; statement in words on the plaque reduction results,show activity; also recorded: good biological activity
same,Activity against DHPG resistant HCMV strain,[3],retain essentially the same activity
same,Plaque reduction,[4]; 4 hour exposure to the cells,~60%
same,Exposure time at which complete inhibition of plaques is seen,[4]; concentration chosen to cause 100% plaque reduction on full exposure,6 h
same,Antiviral effect,[4]; only 2 hours of exposure,no effect
same,Virucidal activity against HCMV,[5],negligible virucidal activity
"Cc1cc(O)c2c(=O)c3c(O)cc(O)c4c5c(O)cc(O)c6c(=O)c7c(O)cc(C)c8c1c2c(c34)c(c78)c65 [Hypericin, hypericin]",% Reduction,[6]; 0.1 μg/ml,0%
same,Number of Plaques,[6]; 0.1 μg/ml,19
same,% Reduction,[6]; 0.32 μg/ml (row r14),0%
same,Number of Plaques,[6]; 0.32 μg/ml (row r14),22
same,% Reduction,[6]; [9],0%
same,Number of Plaques,[6]; [9],25
same,% Reduction,[6]; 1.0 μg/ml,0%
same,Number of Plaques,[6]; 1.0 μg/ml,19
same,% Reduction,[6]; 3.2 μg/ml,0%
same,Number of Plaques,[6]; 3.2 μg/ml,15
same,% Reduction,[6]; 10 μg/ml,100%
same,Number of Plaques,[6]; 10 μg/ml,0
same,CD50,"[1]; Example 1, DMSO stock",≈10 μg/ml
same,CD50,[1]; [8],˜10 μg/ml
same,Number of Plaques,"[2]; 0.0032 μg/ml, Example 1, DMSO stock",72
same,Number of Plaques,"[2]; 0.1 μg/ml, Example 1, DMSO stock",72
same,Number of Plaques,"[2]; 0.32 μg/ml, Example 1, DMSO stock",53
same,Number of Plaques,"[2]; 1.0 μg/ml, Example 1, DMSO stock",53
same,Number of Plaques,"[2]; 3.2 μg/ml, Example 1, DMSO stock",6
same,Number of Plaques,"[2]; 10 μg/ml, Example 1, DMSO stock",0
same,inhibition at 0.0032 µg/mL,"[2]; Human betaherpesvirus 5, AD169, MRC5, 0.0032 μg/ml, Example 1, DMSO stock",9%
same,inhibition at 0.01 µg/mL,"[2]; Human betaherpesvirus 5, AD169, MRC5, 0.01 μg/ml, Example 2, read-out: Percent Inhibition of Plaque Numbers (Compared to Virus Controls)",0%
same,inhibition at 0.032 µg/mL,"[2]; Human betaherpesvirus 5, AD169, MRC5, 0.032 μg/ml, Example 2, read-out: Percent Inhibition of Plaque Numbers (Compared to Virus Controls)",0%
same,inhibition at 0.1 µg/mL,[2]; [10],9%
same,inhibition at 0.1 µg/mL,[2]; [11],0%
same,inhibition at 0.32 µg/mL,[2]; [10],33%
same,inhibition at 0.32 µg/mL,[2]; [11],0%
same,inhibition at 1 µg/mL,[2]; [10],33%
same,inhibition at 1 µg/mL,[2]; [11],63%
same,inhibition at 3.2 µg/mL,"[2]; Human betaherpesvirus 5, AD169, MRC5, 3.2 μg/ml, Example 1, DMSO stock, read-out: % Inhibition",92%
same,inhibition at 10 µg/mL,"[2]; Human betaherpesvirus 5, AD169, MRC5, 10 μg/ml, Example 1, DMSO stock, read-out: % Inhibition",100%
same,Activity in initial screening against HCMV in vitro,[2],active
same,inhibition at 10 µg/mL,"[3]; Human betaherpesvirus 5, MRC5, 96 h, read-out: Percent Inhibition Compared to Controls",98%
same,inhibition at 0.01 µg/mL,[3]; [12],0%
same,inhibition at 0.032 µg/mL,[3]; [12],0%
same,inhibition at 0.1 µg/mL,[3]; [12],0%
same,inhibition at 0.32 µg/mL,[3]; [12],18%
same,inhibition at 1 µg/mL,[3]; [12],52%
same,inhibition at 3.2 µg/mL,[3]; [12],93%
same,CD50,[7],>10 µg/mL
